Source: ChEMBL document CHEMBL3507680, “University of Dundee, Gates Library screen for HepG2 cell viability”

Test: Human HepG2 cell viability assay in 384 well format
Assay type: toxicity, cell-based
Parameters: dose 125 nL, time 70.5 hour; concentration not given beside the values
Settings: HepG2 cells, read-out: Inhibition

| Compound | cytotoxicity at 70.5 h |
| --- | --- |
| O=C(C1CC(=O)N(c2n[nH]c3cc(Br)ccc23)C1)N1CCOCC1 (stereo not drawn) | -11.9% |
| COCCn1ccc2ccc(C(=O)N3CCN(C(C)=O)CC3)cc21 | -13.7% |
| CSCCC(Nc1nc(C)cc(C)n1)C(=O)NC(C)(C)CO (stereo not drawn) | 25.7% |
| O=C1CSC(c2ccsc2)c2c(n(C3CCCC3)[nH]c2=O)N1 (stereo not drawn) | -12.7% |
| Cc1cc(C)nc(NCCCC(=O)NCCn2ccc3ccccc32)n1 | -30.2% |
| CSCCC(Nc1nc(C)cc(C)n1)C(=O)NC1CCCC1 (stereo not drawn) | -12.6% |
| COCCn1cc(CC(=O)Nc2cc(C)n(C)n2)c2ccccc21 | -5.22% |
| O=C(CCNc1ncccn1)Nc1ccc(Cn2cncn2)cc1 | -7.19% |
| CSCCC(Nc1nc(C)cc(C)n1)C(=O)NCC1CCOCC1 (stereo not drawn) | -8.81% |
| COCCn1cc(CCC(=O)Nc2c(C)nn(C)c2C)c2ccccc21 | 49.6% |
| O=C(Nc1ncc[nH]1)c1cc(-c2cccnc2)n[nH]1 | -2.08% |
| CC(C)c1sc(Cl)nc1C(=O)N1CCN(c2ccccc2)CC1 | 28.2% |
| CC(=O)Nc1cccc2c1ccn2CC(=O)NC(C)C | -2.5% |
| Cc1nn(C)c2nc(C(C)C)cc(C(=O)Nc3n[nH]c(C4CC4)n3)c12 | 27% |
| CC1=Nc2c(c(=O)[nH]n2C2CCOCC2)C(c2cccc(O)c2)S1 (stereo not drawn) | -7.06% |
| O=C(NCC1CCCO1)c1cc(-c2ccc3c(c2)CCO3)n[nH]1 (stereo not drawn) | 16.6% |
| CCN1CCCC1CNC(=O)Cc1c(-c2ccc(Cl)cc2)n[nH]c1C (stereo not drawn) | 21.2% |
| O=C(NC1CCCc2c1[nH]c1ccc(F)cc21)c1n[nH]c2c1CCCC2 (stereo not drawn) | 27% |
| CC(C)n1cnc2ccc(NC(=O)CCCn3cccn3)cc2c1=O | 21.7% |
| COCCn1cnc2ccc(NC(=O)c3ccc(OC)cc3)cc2c1=O | -9.11% |
| COc1ccc(C(=O)Nc2ccc3ncn(C(C)C)c(=O)c3c2)cc1 | -3.51% |
| O=C1CSC(c2ccncc2)c2c(n(C3CCOCC3)[nH]c2=O)N1 (stereo not drawn) | 36.4% |
| O=C1CSC(c2ccccc2)c2c(n(C3CCOCC3)[nH]c2=O)N1 (stereo not drawn) | -23% |
| COc1cccc(C(=O)Nc2n[nH]c(C3CCCO3)n2)c1 (stereo not drawn) | 22.1% |
| COc1ccc(-c2n[nH]c(C)c2CC(=O)N2CCOCC2)cc1 | -6.85% |
| COc1ccc(CC(=O)Nc2ccc3ncn(C)c(=O)c3c2)cc1 | -2.82% |

| Compound | cytotoxicity at 70.5 h |
| --- | --- |
| COCCn1ccc2c(C(=O)NC3CN4CCC3CC4)cccc21 (stereo not drawn) | -20.8% |
| COCCNC(=O)c1cc(-c2ccc3c(c2)CCO3)n[nH]1 | 15.5% |
| CC(C)n1ccc2ccc(C(=O)NC3CN4CCC3CC4)cc21 (stereo not drawn) | -17.1% |
| COc1ccc(-c2n[nH]c(C)c2CC(=O)NCCN2CCOCC2)cc1 | -2.78% |
| O=C(Cn1cnc2sccc2c1=O)NCCCc1nnc2ccccn12 | -17.5% |
| COCCn1ccc2c(NC(=O)c3n[nH]c4c3CCC4)cccc21 | 1.93% |
| COc1ccc(-c2n[nH]c(C)c2CC(=O)NCC2CCCO2)cc1 (stereo not drawn) | 20.6% |
| COc1ccc(C(=O)CNC(=O)c2nc(Cl)sc2C(C)C)cc1 | 25% |
| O=C1CSC(c2cccnc2)c2c(n(C3CCOCC3)[nH]c2=O)N1 (stereo not drawn) | -24.2% |
| CC(C)c1sc(Cl)nc1C(=O)NCc1ccncc1 | 19.6% |
| O=C(CN1C(=O)CCC1=O)N1CCOCC1 | 48.6% |
| CN(Cc1cccnc1)CC1CC12CCN(Cc1nccs1)CC2 (stereo not drawn) | 2.96% |
| O=S(=O)(c1cccc(F)c1)N1C[C@@H]2COC[C@]2(COCC2CC2)C1 | 4.21% |
| C1CCN(Cc2nnn3c2CN(CC2CC2)CCC3)C1 | 0.89% |
| C1CN(CC2CCOCC2)Cc2c(CN3CCOCC3)nnn2C1 | 6.54% |
| c1nc2n(c1CN1CCOCC1)CCN(C1CCOC1)CC2 (stereo not drawn) | 7.7% |
| O=C(C1CCOC1)N1CCc2ncnc(NC3CCC3)c2CC1 (stereo not drawn) | -2.47% |
| CCN(CC)Cc1cnc2n1CCN(C1CCOC1)CC2 (stereo not drawn) | -1.04% |
| CC(C)NC(=O)[C@H]1CCS(=O)(=O)[C@@H]2CN(c3ncccn3)C[C@H]12 | -6.18% |
| CC(=O)N1CCCc2sc(C(=O)NC3CC3)nc21 | -6.9% |
| O=C(NC1CC1)c1nc2c(s1)CCCN2c1ccccc1 | -6.79% |
| COc1cc(N2C[C@H]3CN(C(=O)c4cnccn4)C[C@H]3C2)ncn1 | -2.87% |
| O=C(c1ccoc1)N1CC[C@H]2[C@H]1CCN2S(=O)(=O)C1CC1 | 13.5% |
| O=C([C@H]1COC[C@H]2CN(c3ccncn3)C[C@H]21)N1CCCC1 | 13.9% |
| O=C(c1ccncc1)N1CCc2onc(CN3CCCC3)c2C1 | 18.4% |
| CCOCC1c2c(ncn2C(C)C)CCN1C(=O)CC (stereo not drawn) | 7.88% |

| Compound | cytotoxicity at 70.5 h |
| --- | --- |
| CC(=O)N1CCC2(CC1)CNc1ccc(F)cc12 | -5.28% |
| CCC(=O)N1CCC2(COCc3c(C)nc(NCc4ccco4)nc32)C1 (stereo not drawn) | -6.57% |
| CCOCC1CC2(CCN(C(=O)C3CC=CC3)CC2)CO1 (stereo not drawn) | -8.99% |
| CC(C)Nc1nc2c(c(N(C)C)n1)CCN(C(=O)c1cc[nH]n1)CC2 | -10.4% |
| Cc1cccc(S(=O)(=O)N2C[C@@H]3OCCN(C(C)C)[C@@H]3C2)c1 | -6.06% |
| O=C(c1cccnc1)N1CCc2onc(CN3CCCC3)c2C1 | -4.02% |
| CNC(=O)N1CCC2(CC1)CNc1ccc(F)cc12 | -5.44% |
| CCOC1CC2(CCN(Cc3nccn3C)CC2)C1 | -0.734% |
| CN(C)Cc1nn(C)c2c1CCN(C(=O)c1cnccn1)C2 | 17.9% |
| COc1ncnc2c1CCN(C(=O)NCc1cccnc1)CC2 | 1.49% |
| CCCS(=O)(=O)N1C[C@@H]2CN(Cc3ccoc3)CCO[C@@H]2C1 | 6.66% |
| Cc1cc(CN2C[C@@H]3CN(C(=O)c4ccsc4)CCO[C@@H]3C2)no1 | 5.07% |
| O=C(NCc1cccnc1)N1CCc2ncnc(C3CC3)c2CC1 | 5.6% |
| COc1cc(N2CCC3(CCN(C(=O)c4cccnc4)CC3)C2)ncn1 | -6.37% |
| O=C(NCC1CC1)[C@@H]1C[C@@H]2OCCN[C@@H]2C1 | -2.73% |
| O=C(c1ccsc1)N1CCO[C@@H]2CN(Cc3cccs3)C[C@@H]2C1 | -6.05% |
| O=C(c1ccncc1)N1CC[C@H]2[C@H]1CCN2S(=O)(=O)C1CC1 | -5.53% |
| O=C([C@@H]1COC[C@H]2CN(c3ccncn3)C[C@H]21)N1CCCC1 | 10.6% |
| CCC1=N[C@@]2(CC[C@@H]3CN(CC(C)C)C[C@@H]32)C(=O)N1 | -2.78% |
| c1cnc(N2CCOCC3(CCCN(Cc4cc[nH]n4)C3)C2)nc1 (stereo not drawn) | -3% |
| O=C(COC1CCCC1)N1C[C@@H]2CN(Cc3ccoc3)CCO[C@@H]2C1 | -6.78% |
| Cc1nc2c(c(NC(C)C)n1)CCN(C(=O)c1ccno1)CC2 | -6.32% |
| c1cncc(CN2CCc3ncnc(C4CC4)c3CC2)c1 | 2.26% |
| Cn1nnc2c1CCN(Cc1ccncc1)C2COCc1ccccc1 (stereo not drawn) | -6.13% |
| Cn1nc(CN2CCCC2)c2c1CN(C(=O)c1cccnc1)CC2 | -2.33% |
| CC(C)N1[C@H](CN(C)C)C[C@@H]2CN(c3ncc(F)cn3)CC[C@@H]21 | 6.71% |
